Data set [1] concerns human platelets. Put plainly: Platelet aggregation inhibition (Born's method, thrombin-stimulated washed platelets). It is filed as cell-based. To be noted: 0.1 U/mL thrombin, mean +/- SD, at least six experiments in duplicate. The protocol: (§1) Freshly drawn venous blood from healthy volunteers of the “Centro Trasfusionale, Ospedale San Martino” in Genoa was collected into 130 mM aqueous trisodium citrate anticoagulant solution (9:1). The donors claimed to have not taken drugs known to interfere with platelet function during two weeks prior to blood collection and gave their informed consent. Washed platelets were prepared centrifuging whole blood at 100× g for 20 min. The obtained platelet-rich plasma was then centrifuged at 1100× g for 15 min. Pellet was washed once with pH 5.2 ACD solution (75 mM trisodium citrate, 42 mM citric acid and 136 mM glucose), centrifuged at 1100× g for 15 min and then re-suspended in pH 7.4 Hepes buffer (145 mM NaCl, 5 mM KCl, 1 mM MgSO4, 10 mM glucose, 10 mM HEPES).
Platelet aggregation was performed in a Bio-Data Aggregometer (Bio-Data Corporation, Horsham, PA, USA) according to Born’s method and quantified by the light transmission reached within 6 min at 37 °C. Briefly, washed platelets (3.0 × 10^8/mL) were pre-incubated for 3 min at 37 °C with saline, compound 4 or 5 before the addition of 0.1 U/mL thrombin. The IC50 values were calculated as above detailed.

Data set [2] has as its system human platelets. The data set can be described thus: ROS production inhibition in thrombin-stimulated washed platelets (DCFH-DA, flow cytometry). As to conditions: for IC50: washed human platelets, 0.1 U/mL thrombin, DCFH-DA, mean +/- SD, at least six experiments in duplicate; for activity towards ROS production in platelets (in words): human platelets, thrombin stimulated. It is filed as cell-based. The protocol: as §1
ROS production was quantified as previously reported by DCFH-DA, a ROS-sensitive probe that yields upon oxidation the fluorescent adduct DCF that is trapped inside the cells. Briefly, washed platelets (1.0 × 10^8/mL), pre-incubated with saline, compounds 4 or 5, for 15 min at 37 °C, were stimulated by 0.1 U/mL thrombin. Incubation was stopped by cooling samples in ice bath and then samples were immediately analyzed in a Merck Millipore Bioscience Guava easyCyte flow cytometer (Merk Millipore, Burlington, MA, USA). The reported IC50 value is the molar concentration of the compound able to obtain 50% inhibition of the […] induced by the agonist and is calculated by the percentage of inhibition that is the inhibition of the […] measured in the presence of the agent compared with that measured in a control sample containing saline, carried out under the same conditions.
On the technique in general: In flow cytometry, cells or beads pass a laser one at a time.

We go through 20 compounds from publication PMC7070443, “New Hybrid Pyrazole and Imidazopyrazole Antinflammatory Agents Able to Reduce ROS Production in Different Biological Targets” (Molecules, 2020).

“And” between values parts separate entries of the source, which are not always exact repeats. Identical values can stand only once.

As to `COc1cc(/C=N/NC(=O)c2cnn(CC(O)c3ccccc3)c2N)ccc1OC(F)F` (stereo not drawn) [4a, (E)-5-Amino-N′-(4-(difluoromethoxy)-3-methoxybenzylidene)-1-(2-hydroxy-2-phenylethyl)-1H-pyrazole-4-carbohydrazide], the melting point lay within 119 to 121 °C. In data set [1] (Platelet), this compound displayed an IC50 of 7.6 ± 0.5 µM. For the same compound, the IC50 in data set [2] (Homo sapiens, Platelet) was ~10 µM. For the same compound, the IC50 in data set [2] is 10.1 ± 2.1 µM.

`COc1cccc(/C=N/NC(=O)c2cnn(CC(O)c3ccccc3)c2N)c1OC1CCCC1` (stereo not drawn) [4b, (E)-5-Amino-N′-(2-(cyclopentyloxy)-3-methoxybenzylidene)-1-(2-hydroxy-2-phenylethyl)-1H-pyrazole-4-carbohydrazide] displayed a melting point of 180 to 181 °C. The compound further yielded a half-maximal inhibitory concentration (IC50) in data set [1] (Platelet) of 64 ± 2.5 µM. The compound further had an IC50 in data set [2] (Homo sapiens, Platelet) of 20.5 ± 2.5 µM.

Consider `CCC(C)Oc1cc(/C=N/NC(=O)c2cnn(CC(O)c3ccccc3)c2N)ccc1OC` (stereo not drawn) [4c, (E)-5-Amino-N′-(3-(sec-butoxy)-4-methoxybenzylidene)-1-(2-hydroxy-2-phenylethyl)-1H-pyrazole-4-carbohydrazide], for which the melting point was 190 to 193 °C. This compound displayed an IC50 in data set [1] (Platelet) of 57.1 ± 1.6 µM. This compound yielded an IC50 in data set [2] (Homo sapiens, Platelet) of 16.7 ± 1.1 µM.

In turn, `Nc1c(C(=O)N/N=C/c2ccc(OC(F)F)c(OC3CCCC3)c2)cnn1CC(O)c1ccccc1` (stereo not drawn) [4e, (E)-5-Amino-N′-(3-(cyclopentyloxy)-4-(difluoromethoxy)benzylidene)-1-(2-hydroxy-2-phenylethyl)-1H-pyrazole-4-carbohydrazide] returned a melting point of 178 to 180 °C. In data set [1] (Platelet), this compound registered an IC50 of 29.4 ± 4.4 µM. The same compound displayed an IC50 in data set [2] (Homo sapiens, Platelet) of 32.8 ± 2.8 µM.

`Nc1c(C(=O)N/N=C/c2ccc(OC(F)F)c(Oc3ccccc3)c2)cnn1CC(O)c1ccccc1` (stereo not drawn) [4f, (E)-5-Amino-N′-(4-(difluoromethoxy)-3-phenoxybenzylidene)-1-(2-hydroxy-2-phenylethyl)-1H-pyrazole-4-carbohydrazide]: the melting point is 184 to 186 °C. The compound further yielded an IC50 in data set [1] (Platelet) of 9.8 ± 1.7 µM. In addition, the IC50 in data set [2] (Homo sapiens, Platelet) is ~10 µM. For the same compound, it took 8.6 ± 2.2 µM to reach half-maximal inhibition in data set [2] (IC50).

Turning to `Nc1c(C(=O)N/N=C/c2ccc(OC(F)F)c(OCc3ccccc3)c2)cnn1CC(O)c1ccccc1` (stereo not drawn) [4g, (E)-5-Amino-N′-(3-(benzyloxy)-4-(difluoromethoxy)benzylidene)-1-(2-hydroxy-2-phenylethyl)-1H-pyrazole-4-carbohydrazide], the melting point lay in the range of 144 to 146 °C. In data set [1] (Platelet), this compound gave an IC50 of 11 ± 1.2 µM. In data set [2] (Homo sapiens, Platelet), the IC50 was ~10 µM. Moreover, 9.5 ± 2.6 µM corresponded to half-maximal inhibition in data set [2] (IC50).

For `COc1cc(/C=N/NC(=O)c2cnn(CC(O)c3ccccc3)c2N)cc(OC)c1OC` (stereo not drawn) [4h, (E)-5-Amino-1-(2-hydroxy-2-phenylethyl)-N′-(3,4,5-trimethoxybenzylidene)-1H-pyrazole-4-carbohydrazide], the IC50 in data set [1] (Platelet) was > 200 µM; in data set [2] (Homo sapiens, Platelet), > 200 µM. The “activity towards ROS production in platelets (in words)” value (“activity towards ROS production” below) in data set [2] was “inactive”.

As to `COc1cccc(/C=N/NC(=O)c2cnn(CC(O)c3ccccc3)c2N)c1Oc1ccccc1` (stereo not drawn) [4i, (E)-5-Amino-1-(2-hydroxy-2-phenylethyl)-N′-(3-methoxy-2-phenoxybenzylidene)-1H-pyrazole-4-carbohydrazide], the melting point is 207 to 209 °C. The IC50 in data set [1] (Platelet) was > 200 µM. Besides, in data set [2] (Homo sapiens, Platelet), the IC50 was > 200 µM. Also, in data set [2], the “activity towards ROS production” value is “completely inactive”.

With `COc1cccc(/C=N/NC(=O)c2cnn(CC(O)c3ccccc3)c2N)c1OCc1ccccc1` (stereo not drawn) [4j, (E)-5-Amino-N′-(2-(benzyloxy)-3-methoxybenzylidene)-1-(2-hydroxy-2-phenylethyl)-1H-pyrazole-4-carbohydrazide], the melting point lay within 198 to 200 °C. The IC50 in data set [1] (Platelet) is > 200 µM. The concentration for half-maximal inhibition (IC50) in data set [2] (Homo sapiens, Platelet) is > 200 µM. Further, the “activity towards ROS production” value in data set [2] was “completely inactive”.

`COc1ccc(/C=N/NC(=O)c2cnn3c2NC(c2ccccc2)C3)cc1OC` (stereo not drawn) [5a, (E)-N′-(3,4-Dimethoxybenzylidene)-2-phenyl-2,3-dihydro-1H-imidazo[1,2-b]pyrazole-7-carbohydrazide] yielded a melting point of 206 to 207 °C. For the same compound, the IC50 in data set [1] (Platelet) came out at 31.5 ± 5.2 µM. Moreover, in data set [2] (Homo sapiens, Platelet), 37.2 ± 2.5 µM corresponded to half-maximal inhibition (IC50).

Consider `COc1cccc(/C=N/NC(=O)c2cnn3c2NC(c2ccccc2)C3)c1OC1CCCC1` (stereo not drawn) [5b, (E)-N′-(2-(Cyclopentyloxy)-3-methoxybenzylidene)-2-phenyl-2,3-dihydro-1H-imidazo[1,2-b]pyrazole-7-carbohydrazide], for which the 50% inhibitory concentration (IC50) in data set [1] (Platelet) was determined as 59.1 ± 5.5 µM; in data set [2] (Homo sapiens, Platelet), 66.7 ± 5.7 µM.

`CCC(C)Oc1cc(/C=N/NC(=O)c2cnn3c2NC(c2ccccc2)C3)ccc1OC` (stereo not drawn) [5c, (E)-N′-(3-(sec-Butoxy)-4-methoxybenzylidene)-2-phenyl-2,3-dihydro-1H-imidazo[1,2-b]pyrazole-7-carbohydrazide] yielded a melting point of 130 to 131 °C. In addition, the IC50 in data set [1] (Platelet) turned out to be 70.9 ± 4 µM. Besides, in data set [2] (Homo sapiens, Platelet), the IC50 came to 71.4 ± 6 µM.

As for `O=C(N/N=C/c1ccc(OC(F)F)c(OC2CCCC2)c1)c1cnn2c1NC(c1ccccc1)C2` (stereo not drawn) [5e, (E)-N′-(3-(cyclopentyloxy)-4-(difluoromethoxy)benzylidene)-2-phenyl-2,3-dihydro-1H-imidazo[1,2-b]-pyrazole-7-carbohydrazide], the IC50 amounted to 70.5 ± 8 µM in data set [1] (Platelet) and 78.8 ± 5.6 µM in data set [2] (Homo sapiens, Platelet).

Regarding `COc1ccc(/C=N/NC(=O)c2cnn3c2NC(c2ccccc2)C3)cc1OC1CCCCC1` (stereo not drawn) [5f, (E)-N′-(3-(Cyclohexyloxy)-4-(methoxy)benzylidene)-2-phenyl-2,3-dihydro-1H-imidazo[1,2-b]pyrazole-7-carbohydrazide], the melting point fell in the range of 119 to 120 °C. Besides, half-maximal inhibition in data set [1] (Platelet) (IC50) required 61.6 ± 6.5 µM. The same compound gave an IC50 in data set [2] (Homo sapiens, Platelet) of 59.9 ± 5.7 µM.

Take `O=C(N/N=C/c1ccc2c(c1)OCO2)c1cnn2c1NC(c1ccccc1)C2` (stereo not drawn) [5g, (E)-N′-(benzo[d][1,3]dioxol-5-ylmethylene)-2-phenyl-2,3-dihydro-1H-imidazo[1,2-b]pyrazole-7-carbohydrazide]: the IC50 in data set [1] (Platelet) amounted to 67 ± 6.6 µM; in data set [2] (Homo sapiens, Platelet) it was 77.9 ± 7.1 µM.

For the compound `COc1cc(/C=N/NC(=O)c2cnn3c2NC(c2ccccc2)C3)cc(OC)c1OC` (stereo not drawn) [5h, (E)-2-Phenyl-N′-(3,4,5-trimethoxybenzylidene)-2,3-dihydro-1H-imidazo[1,2-b]pyrazole-7-carbohydrazide], the IC50 was > 200 µM in data set [1] (Platelet) and > 200 µM in data set [2] (Homo sapiens, Platelet). Besides, in data set [2], the “activity towards ROS production” value is “inactive”.

With `COc1cccc(/C=N/NC(=O)c2cnn3c2NC(c2ccccc2)C3)c1Oc1ccccc1` (stereo not drawn) [5i, (E)-N′-(2-(Phenoxy)-3-(methoxy)benzylidene)-2-phenyl-2,3-dihydro-1H-imidazo[1,2-b]pyrazole-7-carbo-hydrazide], the IC50 in data set [1] was > 200 µM. Moreover, in data set [2], the “activity towards ROS production” value is “completely inactive” and the IC50 is > 200 µM.

Take `COc1cccc(/C=N/NC(=O)c2cnn3c2NC(c2ccccc2)C3)c1OCc1ccccc1` (stereo not drawn) [5j, (E)-N′-(2-(Benzyloxy)-3-(methoxy)benzylidene)-2-phenyl-2,3-dihydro-1H-imidazo[1,2-b]pyrazole-7-carbohydrazide]: the melting point lay within 200 to 202 °C. In addition, the concentration for half-maximal inhibition (IC50) in data set [1] (Platelet) is > 200 µM. The half-inhibitory concentration (IC50) in data set [2] (Homo sapiens, Platelet) is > 200 µM. Further, the “activity towards ROS production” value in data set [2] was “completely inactive”.

`COc1ccc(/C=N/NC(=O)c2cnn3c2N(C(C)=O)C(c2ccccc2)C3)cc1OC1CCCC1` (stereo not drawn) [5k, (E)-1-acetyl-N′-(3-(cyclopentyloxy)-4-methoxybenzylidene)-2-phenyl-2,3-dihydro-1H-imidazo[1,2-b]pyrazole-7-carbohydrazide]: the melting point is 140 to 141 °C. Moreover, the IC50 in data set [1] (Platelet) is > 200 µM. For the same compound, the IC50 in data set [2] (Homo sapiens, Platelet) was > 200 µM. In addition, the “activity towards ROS production” value in data set [2] was “completely inactive”.

As to “(E)-5-Amino-N′-(3-(cyclopentyloxy)-4-methoxybenzylidene)-1-(2-hydroxy-2-phenylethyl)-1H-pyrazole-4-carbohydrazide [4k]”, the IC50 in data set [1] was 86.1 ± 7.8 µM; in data set [2] it was 90 µM and 92.7 µM.

Broadly, the IC50 is the concentration that gives 50% inhibition. Read a high IC50 as lower potency. As usually defined, the melting point is the temperature, or range, at which the solid turns liquid.
